In EPA's ToxRefDB 2:

Legend:
rat [1] = details: Multigenerational reproductive toxicity study, sprague dawley, Oral, Feed, dose end: 2 generation
rat [2] = details: Combined chronic toxicity/carcinogenicity, sprague dawley, Oral, [Not Specified], dose end: 104 week, group: systemic
dog [3] = details: Chronic toxicity, beagle, Oral, Capsule, dose end: 52 week, group: systemic
rat [4] = details: Subchronic oral toxicity in rodents, sprague dawley, Feed, dose end: 13 week, group: systemic
mouse [5] = details: Carcinogenicity, cd1, Oral, Feed, dose end: 80 week, group: systemic
dog [6] = details: Subchronic oral toxicity in nonrodent, beagle, Capsule, dose end: 13 week, group: systemic
rat [7] = details: Prenatal developmental toxicity study, sprague dawley, Oral, Gavage/Intubation, dose end: 16 GD
mouse [8] = details: Subchronic oral toxicity in rodents, b6c3f1, Feed, dose end: 90 day, group: systemic
rat [9] = details: Subchronic oral toxicity in rodents, sprague dawley, Feed, dose end: 13 week, group: systemic; remark: listed apart in the source
dog [10] = details: Sub-acute repeat dose toxicity, beagle, Oral, Feed, group: systemic
rat [11] = details: Prenatal developmental toxicity study, sprague dawley, Inhalation, Whole-Body, dose end: 19 GD, group: maternal
rat [12] = details: Multigenerational reproductive toxicity study, sprague dawley, Inhalation, Whole-Body, dose end: 2 generation
rat [13] = details: Prenatal developmental toxicity study, sprague dawley, Oral, Gavage/Intubation, dose end: 15 GD
rat [14] = details: Combined chronic toxicity/carcinogenicity, sprague dawley, Oral, Feed, dose end: 24 month
dog [15] = details: Chronic toxicity, beagle, Oral, Capsule, dose end: 52 week
mouse [16] = details: Carcinogenicity, cd1, Oral, Feed, dose end: 18 month, group: systemic
[17] = group: offspring, systemic / in life observation / body weight / offspring (pup) weight
[18] = group: parental, systemic / hematology / mean corpuscular (cell) volume (mcv) / mean corpuscular (cell) volume (mcv) + systemic / hematology / mean …
[19] = systemic / pathology microscopic / liver / discolored
[20] = systemic / pathology microscopic / liver / discolored + systemic / clinical chemistry / cholesterol / cholesterol + systemic / in life …
[21] = systemic / urinalysis / porphyrins / porphyrins
[22] = systemic / urinalysis / porphyrins / porphyrins + systemic / organ weight / liver / absolute
[23] = systemic / clinical chemistry / alanine aminotransferase (alt/sgpt) / alanine aminotransferase (alt/sgpt) + systemic / clinical chemistry / …
[24] = systemic / in life observation / body weight / body weight gain + systemic / pathology microscopic / liver / inflammation
[25] = systemic / in life observation / body weight / body weight gain + systemic / urinalysis / porphyrins / porphyrins
[26] = systemic / in life observation / body weight / body weight gain + systemic / urinalysis / porphyrins / porphyrins + systemic / hematology / …
[27] = group: developmental, developmental / developmental malformation / bone / thickened + developmental / developmental malformation / bone / wavy
[28] = group: maternal, systemic / in life observation / clinical signs / abdominogenital staining + systemic / in life observation / clinical signs / discharge on …
[29] = systemic / in life observation / body weight / body weight + systemic / in life observation / food consumption / food consumption + systemic…
[30] = systemic / in life observation / body weight / body weight gain + systemic / in life observation / body weight / body weight + systemic / in…
[31] = group: offspring, systemic / organ weight / kidney / nos + systemic / in life observation / body weight / offspring (pup) weight + developmental / …
[32] = group: parental, systemic / pathology gross / lung / discolored
[33] = group: reproductive, reproductive / offspring survival early / birth index / live birth index + reproductive / reproductive performance / estrous cycle / corpora…
[34] = group: developmental, developmental / developmental malformation / bone / incomplete ossification
[35] = group: developmental, developmental / developmental malformation / bone / incomplete ossification + developmental / developmental malformation / bone / …
[36] = group: maternal, systemic / in life observation / food consumption / food consumption + systemic / in life observation / body weight / body weight + systemic…
[37] = group: cholinesterase, cholinesterase / cholinesterase / cholinesterase / plasma cholinesterase (che)
[38] = group: systemic, systemic / hematology / erythrocyte (rbc) count differential / erythrocyte (rbc) + systemic / hematology / hematocrit (hct) / hematocrit (…
[39] = group: cholinesterase, cholinesterase / cholinesterase / cholinesterase / plasma cholinesterase (che) + cholinesterase / cholinesterase / cholinesterase / brain …
[40] = group: systemic, systemic / in life observation / clinical signs / tremors + systemic / in life observation / clinical signs / vomitting
[41] = systemic / in life observation / body weight / body weight + systemic / in life observation / food consumption / food consumption

SMILES: CCOC(=O)C(Cl)Cc1cc(-n2nc(C)n(C(F)F)c2=O)c(F)cc1Cl (configuration not stated) [Carfentrazone-ethyl]
- LEL (rat [1]; [17]): 343 mg/kg/day
- LOAEL (rat [1]; [17]): 343 mg/kg/day
- NEL (rat [1]; [17]): 127 mg/kg/day
- NOAEL (rat [1]; [17]): 127 mg/kg/day
- LEL (rat [1]; [18]): 343 mg/kg/day
- LOAEL (rat [1]; [18]): 343 mg/kg/day
- NEL (rat [1]; [18]): 127 mg/kg/day
- NOAEL (rat [1]; [18]): 127 mg/kg/day
- LEL (rat [2]; [19]): 12 mg/kg/day
- LOAEL (rat [2]; [19]): 12 mg/kg/day
- NEL (rat [2]; [20]): 3 mg/kg/day
- NOAEL (rat [2]; [20]): 3 mg/kg/day
- LEL (dog [3]; [21]): 150 mg/kg/day
- LOAEL (dog [3]; [21]): 150 mg/kg/day
- NEL (dog [3]; [22]): 50 mg/kg/day
- NOAEL (dog [3]; [22]): 50 mg/kg/day
- LOAEL (rat [4]; [23]): 470 mg/kg/day
- NEL (rat [4]; [23]): 58 mg/kg/day
- NOAEL (rat [4]; [23]): 226 mg/kg/day
- LEL (rat [4]; systemic / in life observation / clinical signs / urine, discoloration + systemic / in life observation / food consumption / food …): 226 mg/kg/day
- LEL (mouse [5]; [24]): 10 mg/kg/day
- NEL (mouse [5]; [24]): < 10 mg/kg/day
- NOAEL (mouse [5]; systemic / in life observation / body weight / body weight gain + systemic / pathology microscopic / liver / inflammation + systemic / in …): 10 mg/kg/day
- LOAEL (mouse [5]; systemic / pathology microscopic / liver / inflammation + systemic / in life observation / mortality / mortality + systemic / pathology …): 110 mg/kg/day
- LEL (dog [6]; [25]): 150 mg/kg/day
- LOAEL (dog [6]; [25]): 150 mg/kg/day
- NEL (dog [6]; [26]): 50 mg/kg/day
- NOAEL (dog [6]; [26]): 50 mg/kg/day
- LEL (rat [7]; [27]): 1250 mg/kg/day
- LOAEL (rat [7]; [27]): 1250 mg/kg/day
- NEL (rat [7]; [27]): 600 mg/kg/day
- NOAEL (rat [7]; [27]): 600 mg/kg/day
- LEL (rat [7]; [28]): 600 mg/kg/day
- LOAEL (rat [7]; [28]): 600 mg/kg/day
- NEL (rat [7]; [28]): 100 mg/kg/day
- NOAEL (rat [7]; [28]): 100 mg/kg/day

SMILES: CC(C)[C@H](C(=O)O[C@H](C#N)c1cccc(Oc2ccccc2)c1)c1ccc(Cl)cc1 [Esfenvalerate]
- LOAEL (mouse [8]; [23]): 106 mg/kg/day
- NEL (mouse [8]; [23]): 10.5 mg/kg/day
- NOAEL (mouse [8]; [23]): 30.5 mg/kg/day
- LEL (mouse [8]; systemic / clinical chemistry / glucose / glucose + systemic / clinical chemistry / triglycerides / triglycerides): 30.5 mg/kg/day
- LOAEL (rat [9]; systemic / in life observation / clinical signs / jerking movements): 7.5 mg/kg/day
- NOAEL (rat [9]; systemic / in life observation / clinical signs / jerking movements + systemic / in life observation / body weight / body weight gain + …): 2.5 mg/kg/day
- LEL (rat [9]; systemic / in life observation / clinical signs / jerking movements + systemic / organ weight / kidney / relative to body weight): 7.5 mg/kg/day
- NEL (rat [9]; systemic / organ weight / kidney / relative to body weight + systemic / hematology / erythrocyte (rbc) count differential / erythrocyte (rbc…): 2.5 mg/kg/day
- LOAEL (dog [10]; systemic / in life observation / body weight / body weight + systemic / in life observation / clinical signs / ataxia): 7.5 mg/kg/day
- LEL (dog [10]; systemic / in life observation / body weight / body weight + systemic / in life observation / clinical signs / ataxia + systemic / in life …): 7.5 mg/kg/day
- NEL (dog [10]; [29]): 2.5 mg/kg/day
- NOAEL (dog [10]; [29]): 2.5 mg/kg/day

SMILES: CI [Methyl iodide]
- LOAEL (rat [11]; systemic / in life observation / body weight / body weight gain): 60 ppm
- LEL (rat [11]; [30]): 60 ppm
- NEL (rat [11]; [30]): 20 ppm
- NOAEL (rat [11]; [30]): 20 ppm
- LEL (rat [12]; [31]): 5 ppm
- LOAEL (rat [12]; [31]): 5 ppm
- NEL (rat [12]; [31]): < 5 ppm
- NOAEL (rat [12]; [31]): < 5 ppm
- LEL (rat [12]; [32]): 5 ppm
- LOAEL (rat [12]; [32]): 5 ppm
- NEL (rat [12]; [32]): < 5 ppm
- NOAEL (rat [12]; [32]): < 5 ppm
- LEL (rat [12]; [33]): 50 ppm
- LOAEL (rat [12]; [33]): 50 ppm
- NEL (rat [12]; [33]): 20 ppm
- NOAEL (rat [12]; [33]): 20 ppm

SMILES: CCOP(=S)(OCC)SCSCC [Phorate]
- LEL (rat [13]; [34]): 0.1 mg/kg/day
- NEL (rat [13]; [34]): < 0.1 mg/kg/day
- LOAEL (rat [13]; [35]): 0.4 mg/kg/day
- NOAEL (rat [13]; [35]): 0.3 mg/kg/day
- LOAEL (rat [13]; group: maternal, systemic / in life observation / food consumption / food consumption): 0.2 mg/kg/day
- LEL (rat [13]; [36]): 0.4 mg/kg/day
- NEL (rat [13]; [36]): 0.3 mg/kg/day
- NOAEL (rat [13]; [36]): 0.1 mg/kg/day
- LEL (rat [14]; [37]): 0.05 mg/kg/day
- LOAEL (rat [14]; [37]): 0.05 mg/kg/day
- NEL (rat [14]; [37]): < 0.05 mg/kg/day
- NOAEL (rat [14]; [37]): < 0.05 mg/kg/day
- LEL (rat [14]; [38]): 0.3 mg/kg/day
- LOAEL (rat [14]; [38]): > 0.3 mg/kg/day
- NEL (rat [14]; [38]): 0.15 mg/kg/day
- NOAEL (rat [14]; [38]): ≥ 0.3 mg/kg/day
- LEL (dog [15]; [37]): 0.05 mg/kg/day
- LOAEL (dog [15]; [37]): 0.05 mg/kg/day
- NEL (dog [15]; [39]): 0.01 mg/kg/day
- NOAEL (dog [15]; [39]): 0.01 mg/kg/day
- LOAEL (dog [15]; group: systemic, systemic / in life observation / clinical signs / tremors + systemic / in life observation / body weight / body weight gain): 0.25 mg/kg/day
- NEL (dog [15]; [40]): 0.005 mg/kg/day
- NOAEL (dog [15]; [40]): 0.05 mg/kg/day
- LEL (dog [15]; group: systemic, systemic / in life observation / clinical signs / vomitting): 0.01 mg/kg/day
- LOAEL (mouse [16]; systemic / in life observation / body weight / body weight): 0.8 mg/kg/day
- LEL (mouse [16]; [41]): 0.8 mg/kg/day
- NEL (mouse [16]; [41]): 0.4 mg/kg/day
- NOAEL (mouse [16]; [41]): 0.4 mg/kg/day
